From patent publication US12252701B2, “Chimeric antigen receptor T cell therapy” (KITE PHARMA, INC., priority 2020, dated 2025)

What was measured:
[1] = system: NALM6.GFP.LUC.CD19 target cells; experiment: Serial killing assay of CAR-T, percent cytotoxicity by luciferase detection; conditions: two different E:T ratios, dose titration
Protocol: The percent cytotoxicity to NALM6.GFP.LUC.CD19 target cells was measured by luciferase detection at each round.
In one embodiment, a serial killing assay is a combination of cell killing and how long it takes for CAR T cells to get exhausted under repeated stimulation. In one embodiment, a serial killing assay is a surrogate measure for CAR T cell persistence in vivo.

[2] = system: CAR-T cells; experiment: CAR-T cell expansion assay (KIP-1 or CD3/CD28 stimulation); conditions: for % viabili.: CD3/CD28 stimulation; for % viabi.: KIP-1 stimulation
[3] = cited from earlier work
[4] = in vitro; conditions: human, CAR-T cells
[5] = system: NALM6.GFP.LUC.CD19 target cells; experiment: Serial killing assay; format: cell-based, human
Protocol: CD19 CAR-T cells were thawed in RPMI media supplemented with HEPES, Penicillin/Streptomycin/L-Glutamine and 10% FBS and rested overnight. The following day, drugs were serially diluted and prepared in 96-well plates. Rested T cells were counted and normalized so that 25,000 or 8,333 T cells were plated with 25,000 NALM6.GFP.LUC.CD19 target cells (1:1 or 1:3 Effector:Target ratio) in the prepared 96-well plates. At 16 hour post-incubation and every 3-4 days, T cell killing of targets was measured via luciferase detection. D-luciferin substrate was added to the co-culture wells at a final concentration of 0.14 mg/mL and plates were incubated at 37° C. in the dark for 10 minutes. Luminescent signal was read immediately after in a VarioSkan™ LUX microplate reader. T cell-mediated cytotoxicity was calculated as follows: % Cytotoxicity=[1−luciferase signal of (sample of interest/target alone control)]*100. Afterwards, co-cultures were stained with LIVE/DEAD and antibodies against CD4, CD8 and KIP-1 and then washed. Cells were then analyzed and quantified via the Attune NxT flow cytometer. T cells were then repeatedly stimulated with fresh 25,000 target cells, and this process was repeated every 3-4 days.

## CCS(=O)(=O)N1CC(CC#N)(n2cc(-c3ncnc4[nH]ccc34)cn2)C1 [baricitinib]
[1]
  impact on CAR-T serial killing (percent cytotoxicity): negative impacts
[2]; CD3/CD28, dose 5 nM, day 4
  % viability: 72.9%
[2]; CD3/CD28, dose 5 nM, day 8
  % viability: 55.7%
[2]; CD3/CD28, dose 5 nM, day 12
  % viability: 83.1%
[2]; CD3/CD28, dose 10 nM, day 4
  % viability: 70.7%
[2]; CD3/CD28, dose 10 nM, day 12
  % viability: 84.7%
[2]; 10 nM, Day 0
  % viabili.: 84%
  % viabi.: 84%
[2]; 10 nM, Day 4
  % viabili.: 82.3%
  % viabi.: 64.7%
[2]; 10 nM, Day 8
  % viabili.: 90.2%
  % viabi.: 55.2%
[2]; 10 nM, Day 12
  % viabili.: 80.2%
  % viabi.: 70.4%
[2]; 20 nM, Day 0
  % viabili.: 84%
  % viabi.: 84%
[2]; 20 nM, Day 4
  % viabili.: 86.4%
  % viabi.: 61.3%
[2]; 20 nM, Day 8
  % viabili.: 82.5%
  % viabi.: 78%
[2]; 20 nM, Day 12
  % viabili.: 76.7%
  % viabi.: 73.5%
[2]; 40 nM, Day 0
  % viabili.: 84%
  % viabi.: 84%
[2]; 40 nM, Day 4
  % viabili.: 89.8%
  % viabi.: 65%
[2]; 40 nM, Day 8
  % viabili.: 85.7%
  % viabi.: 77.8%
[2]; 40 nM, Day 12
  % viabili.: 74.7%
  % viabi.: 68.8%
[2]; 60 nM, Day 0
  % viabili.: 84%
  % viabi.: 84%
[2]; 60 nM, Day 4
  % viabili.: 91.7%
  % viabi.: 57.8%
[2]; 60 nM, Day 8
  % viabili.: 91.3%
  % viabi.: 57.6%
[2]; 60 nM, Day 12
  % viabili.: 71.5%
  % viabi.: 70.8%
[2]; 80 nM, Day 0
  % viabili.: 84%
  % viabi.: 84%
[2]; 80 nM, Day 4
  % viabili.: 91.1%
  % viabi.: 66.2%
[2]; 80 nM, Day 8
  % viabili.: 83.6%
  % viabi.: 69.4%
[2]; 80 nM, Day 12
  % viabili.: 67.7%
  % viabi.: 69.5%
[2]; 100 nM, Day 0
  % viabili.: 84%
  % viabi.: 84%
[2]; 100 nM, Day 4
  % viabili.: 86.8%
  % viabi.: 67.7%
[2]; 100 nM, Day 8
  % viabili.: 73.3%
  % viabi.: 78.1%
[2]; 100 nM, Day 12
  % viabili.: 76.3%
  % viabi.: 65.2%
[2]; KIP-1, dose 10 nM, day 8
  % viability: 58.7%
[3]; clinical dosing 2 mg daily, cell prints (nM)
  Cmax: 45.7 nM
[3]; plasma protein binding, reported
  Protein binding: 50%
[4]
  viability at 0 day, 5 nM: 75%
  viability at 0 day, 10 nM: 75%
  viability at 4 day, 5 nM: 67.4%
  viability at 4 day, 10 nM: 58.9%
  viability at 8 day, 5 nM: 72.7%
  viability at 12 day, 5 nM: 82.3%
  viability at 12 day, 10 nM: 71.2%
[5]
  reduction of clinical dosing required to avoid negative impacts on product performance: roughly 4 fold
